In US5596018A, “Antiviral agents against aids-causing virus” (priority 1988, dated 1997):

Key:
in vitro = details: human
Method: Anti-HIV assays of fuchsinic acid were carried out in cultures of MT-4 and HUT-78 cells infected with AIDS-causing viruses such as HIV type 1 (HIV-1) and HIV type 2 (HIV-2), taking cytopathogenicity as a parameter of the inhibitory effect on replication of the viruses. The anti-HIV activity was also measured by monitoring the expression of viral antigen.

HIV-1 [1] = assay: Anti-HIV-1 assay in MT-4 cells, inhibition of viral cytopathogenicity; assay type: cell-based; details: for EC50: Human immunodeficiency virus 1, MT4, HIV-1, cytopathogenic effect, read-out: ED50 a: Antiviral 50% effective dose; for EC50 / SI: Selective index: MT-4 cells
HIV-1 [2] = assay: Anti-HIV-1 assay in HUT-78 cells, expression of viral antigen; assay type: cell-based; details: for SI: Selective index / EC50: HUT-78 cells; for EC50: Human immunodeficiency virus 1, HuT78, HIV-1 antigen expression, read-out: ED50 a: Antiviral 50% effective dose
HIV-2 = assay: Anti-HIV-2 assay in MT-4 cells, inhibition of viral cytopathogenicity; assay type: cell-based; details: Human immunodeficiency virus 2, MT4; HIV-2, MT-4 cells, cytopathogenic effect; read-out: 50% effective dose (ED50) for HIV-2

O=C(O)C1=CC(=C(c2ccc(O)c(C(=O)O)c2)c2ccc(O)c(C(=O)O)c2)C=CC1=O [ATA, Aurintricarboxylic acid]
CC50 (in vitro; hut-78 cells): 13 µM | CC50 (in vitro; mt-4 cells): 590 µM | EC50 (HIV-1 [1]): 5 µM | SI: Selective index (HIV-1 [1]): 118 | SI: Selective index (HIV-1 [2]): 19 | EC50 (HIV-1 [2]): 0.69 µM

O=C1C=CC(=C(c2ccc(O)cc2)c2ccc(O)cc2)C=C1 [Aurin]
CC50 (in vitro; hut-78 cells): 2.3 µM | CC50 (in vitro; mt-4 cells): 2.6 µM | EC50 (HIV-1 [1]): > 2.6 µM | SI: Selective index (HIV-1 [1]): < 1 | SI: Selective index (HIV-1 [2]): < 1 | EC50 (HIV-1 [2]): > 2.3 µM

Cc1cc(C(=C2C=CC(=N)C(S(=O)(=O)O)=C2)c2ccc(N)c(S(=O)(=O)O)c2)cc(S(=O)(=O)O)c1N [Fuchsinic acid]
EC50 (HIV-2): 63 µM | CC50 (in vitro; hut-78 cells): > 625 µM | CC50 (in vitro; mt-4 cells): > 3120 µM | Inhibition of cytopathogenic effect (CPE) (HIV-1 [1]; HIV-1, MT-4 cells, at 125 μM (FIG. 1-A)): complete inhibition | EC50 (HIV-1 [1]): 42 µM | SI: Selective index (HIV-1 [1]): < 74 | SI: Selective index (HIV-1 [2]): < 39 | EC50 (HIV-1 [2]): 16 µM | Inhibition of HIV-1 antigen (HIV-1 [2]; at 25 μM): inhibited

Cc1ccc(C(=O)Nc2ccc(S(=O)(=O)O)c3cc(S(=O)(=O)O)cc(S(=O)(=O)O)c23)cc1NC(=O)c1cccc(NC(=O)Nc2cccc(C(=O)Nc3cc(C(=O)Nc4ccc(S(=O)(=O)O)c5cc(S(=O)(=O)O)cc(S(=O)(=O)O)c45)ccc3C)c2)c1 [Suramin]
CC50 (in vitro; hut-78 cells): 55 µM | CC50 (in vitro; mt-4 cells): 625 µM | EC50 (HIV-1 [1]): 32 µM | SI: Selective index (HIV-1 [1]): 20 | SI: Selective index (HIV-1 [2]): 3.1 | EC50 (HIV-1 [2]): 18 µM
